These are literature values, as cited in patent publication US20120010144A1, “Peg-albumin composition having at least one protected thiol region as a platform for medications” (priority 2009, published 2012).

The conditions of this data set: soluble in water (hydrophilic) or in lipid (hydrophobic).
Regarding `Cc1c(C)c2c(c(C)c1O)CC[C@@](C)(CCC[C@H](C)CCC[C@H](C)CCCC(C)C)O2` [A-Tocopherol], the Solubility result is reported as “Lipid”.

Regarding `N[C@@H](CCC(=O)N[C@@H](CS)C(=O)NCC(=O)O)C(=O)O` [Glutathione], the Solubility entry is listed as “Water”.

In the case of `COc1c(O)c(C)c(C/C=C(\C)CC/C=C(\C)CC/C=C(\C)CC/C=C(\C)CC/C=C(\C)CC/C=C(\C)CC/C=C(\C)CC/C=C(\C)CC/C=C(\C)CCC=C(C)C)c(O)c1OC` [Ubiquinol], the Solubility result is “Lipid”.

On to `O=c1[nH]c(=O)c2[nH]c(=O)[nH]c2[nH]1` [Uric Acid], for which the Solubility entry was “Water”.

For the molecule Carotenes, the Solubility result is “Lipid”.
